Key:
[1] = tested on: MCF-7 cells; test: Cell viability assay, MCF-7 cells (CellTiter-Glo, 168 h); assay type: cell-based; details: Homo sapiens, MCF7
Description: An in vitro cell viability assay was conducted using some Example compounds following the steps below:
1. After recovery, MCF-7 cells (obtained from the Shanghai Cell Bank of the Chinese Academy of Sciences) were cultured at 37° C., 5% CO2, and 95% humidity.
2. 8 compound solutions at different concentrations were prepared for each Example compound. 50 μL of the compound solution at each concentration was added to a 96-well black plate.
3. The cell concentration was adjusted to about 30,000 cells/mL. 100 μL of the cell suspension was added to the 96-well plate, and mixed well to a final cell density of about 3,000 cells/well.
4. The 96-well plate was incubated at 37° C., 5% CO2, and 95% humidity for 168 h, i.e., 7 days.
5. The cell survival rate was measured by the method of CellTiter-Glo® Luminescent Cell Viability Assay (Promega, Cat #G7572). The fluorescence data were read on a microplate reader (EnVision™, a multi-function microplate detector, PerkinElmer).
6. The obtained fluorescence data were analyzed using the GraphPad Prism software. The cell survival rate was calculated for each Example compound at each concentration, and the IC50 interval of each Example compound was determined.

[2] = target: T1, CDK6/CyclinD1 (Homo sapiens, UniProt Q00534); test: In vitro cell-free CDK6/CyclinD1 kinase activity assay (TR-FRET); assay type: biochemical; details: ATP at Km
T1 construct: purchased Carna 04-114
T1 sequence (Q00534 whole entry): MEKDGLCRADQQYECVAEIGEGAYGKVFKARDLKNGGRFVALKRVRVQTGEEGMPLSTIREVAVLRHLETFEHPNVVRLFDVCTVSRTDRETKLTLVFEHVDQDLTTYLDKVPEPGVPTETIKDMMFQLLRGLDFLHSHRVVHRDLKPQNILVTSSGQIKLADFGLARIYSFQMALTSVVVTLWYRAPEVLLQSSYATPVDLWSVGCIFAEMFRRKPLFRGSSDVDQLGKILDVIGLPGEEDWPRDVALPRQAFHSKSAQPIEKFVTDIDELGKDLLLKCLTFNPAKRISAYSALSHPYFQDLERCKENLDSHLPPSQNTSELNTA
T1 sequence (P24385 whole entry partner): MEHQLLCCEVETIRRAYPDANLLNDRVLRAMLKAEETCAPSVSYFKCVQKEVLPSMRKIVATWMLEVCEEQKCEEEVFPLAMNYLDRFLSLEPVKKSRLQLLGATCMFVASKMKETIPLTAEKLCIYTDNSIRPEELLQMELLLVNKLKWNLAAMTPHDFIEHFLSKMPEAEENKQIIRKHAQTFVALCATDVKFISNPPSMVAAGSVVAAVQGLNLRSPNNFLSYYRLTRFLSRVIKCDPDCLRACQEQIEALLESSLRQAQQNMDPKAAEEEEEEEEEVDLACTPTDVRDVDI
Description: It should be noted that the assay can also be conducted by a similar method. The assay steps in this Test Example are as follows:
The CDK6/CyclinD1 kinase activity was determined using a time-resolved fluorescence resonance energy transfer (TR-FRET) method. Measurements were performed in a reaction volume of 20 μL using 384-well assay plates. […] The reaction was stopped by adding a mixture of a peptide antibody (trade name: Cisbio, product No. 64CUSKAY) and Sa-XL665 (trade name: Cisbio, product No. 610SAXLB) diluted in HTRF KinEASE detection buffer (trade name: Cisbio, product No. 62SDBRDF, containing EDTA). After the mixture was incubated for 1 hour at room temperature, the plate was read. The TR-FRET signal was measured on a multimode plate reader (EnVision™, a multi-function microplate detector, PerkinElmer) at an excitation wavelength (λEx) of 330 nm and detection wavelengths (λEm) of 615 and 665 nm. The activity was determined by the ratio of fluorescence at 665 nm to that at 615 nm. For each compound, the enzyme activities of different concentrations of the compound were measured to determine IC50. The negative control contained no inhibitor. Two no-enzyme controls were used to determine baseline fluorescence levels. IC50 was obtained by fitting using the GraphPad 6.02 software.
8-10 concentrations were prepared for each compound, and formulated in DMSO. The stock concentration was 200× the working concentration. For example, if the working concentration was 100 nM, the corresponding concentration of the formulated stock solution was 20 μM.
In the analysis of in vitro inhibitory activity on CDK kinase, the IC50 value of each of the Example compounds and Reference Example compounds was determined.

| Compound | IC50 [1] | IC50 [2] |
| --- | --- | --- |
| COc1cc(F)ccc1-c1c(C(=O)N(C)C)cc2cnc(Nc3ccc(N4CC5(CNC5)C4)cn3)nn12 [Example 65] | 2500 to 10000 nM | < 100 nM |
| Cc1noc(C)c1-c1c(-c2cnn(C)c2)cc2cnc(Nc3ccc(N4CCNCC4)cn3)nn12 [Example 68] | 2500 to 10000 nM | 100 to 1000 nM |
| CN(C)C(=O)c1cc2cnc(Nc3ccc(N4CC5(CCNC5)C4)cn3)nn2c1-c1ccncc1 [Example 69] | 2500 to 10000 nM | < 100 nM |
| Cn1cc(-c2cc3cnc(Nc4ccc(N5CCNCC5)cn4)nn3c2C2CCCC2)cn1 [Example 71] | 500 to 2500 nM | < 100 nM |
| FC(F)n1cc(-c2cc3cnc(Nc4ccc(N5CCNCC5)cn4)nn3c2C2=CCCC2)cn1 [Example 72] | 500 to 2500 nM | 100 to 1000 nM |
| Cn1cc(-c2cc3cnc(Nc4ccc(N5CCNCC5)cn4)nn3c2C2=CCCC2)ccc1=O [Example 73] | 500 to 2500 nM | < 100 nM |
| C1=C(c2c(-c3cn[nH]c3)cc3cnc(Nc4ccc(N5CCNCC5)cn4)nn23)CCC1 [Example 74] | < 500 nM | < 100 nM |
| C1=C(c2c(-c3cccs3)cc3cnc(Nc4ccc(N5CCNCC5)cn4)nn23)CCC1 [Example 75] | 500 to 2500 nM | < 100 nM |
| C1=C(c2c(-c3cnoc3)cc3cnc(Nc4ccc(N5CCNCC5)cn4)nn23)CCC1 [Example 76] | 2500 to 10000 nM | < 100 nM |
| Cc1ncc(-c2cc3cnc(Nc4ccc(N5CCNCC5)cn4)nn3c2C2=CCCC2)cn1 [Example 78] | 2500 to 10000 nM | < 100 nM |
| Cn1cc(-c2cc3cnc(Nc4ccc(N5CCNCC5)cn4)nn3c2)cn1 [Example 81] | 2500 to 10000 nM | 100 to 1000 nM |
| Cn1cc(-c2cc3cnc(Nc4ccc(N5CCNCC5)cn4)nn3c2Br)cn1 [Example 82] | < 500 nM | 100 to 1000 nM |
| Cc1ccc(-c2cc3cnc(Nc4ccc(N5CCNCC5)cn4)nn3c2C2=CCCC2)s1 [Example 83] | 500 to 2500 nM | 100 to 1000 nM |
| C1=C(c2c(-c3cncnc3)cc3cnc(Nc4ccc(N5CCNCC5)cn4)nn23)CCC1 [Example 84] | < 500 nM | < 100 nM |
| Cc1n[nH]cc1-c1cc2cnc(Nc3ccc(N4CCNCC4)cn3)nn2c1C1=CCCC1 [Example 85] | < 500 nM | < 100 nM |
| CCn1cc(-c2cc3cnc(Nc4ccc(N5CCNCC5)cn4)nn3c2C2=CCCC2)cn1 [Example 86] | < 500 nM | < 100 nM |
| CC(C)n1cc(-c2cc3cnc(Nc4ccc(N5CCNCC5)cn4)nn3c2C2=CCCC2)cn1 [Example 87] | < 500 nM | 100 to 1000 nM |
| C1=C(c2c(-c3cccnc3)cc3cnc(Nc4ccc(N5CCNCC5)cn4)nn23)CCC1 [Example 88] | < 500 nM | < 100 nM |
| Cc1ccc(-c2cc3cnc(Nc4ccc(N5CCNCC5)cn4)nn3c2C2=CCCC2)cn1 [Example 89] | < 500 nM | < 100 nM |
| Cc1cc(-c2cc3cnc(Nc4ccc(N5CCNCC5)cn4)nn3c2C2=CCCC2)ccn1 [Example 90] | < 500 nM | < 100 nM |
| COc1cc(F)ccc1-c1c(-c2c[nH]nc2C)cc2cnc(Nc3ccc(N4CCNCC4)cn3)nn12 [Example 91] | 2500 to 10000 nM | 100 to 1000 nM |
| Cn1cc(-c2cc3cnc(Nc4ccc(N5CC6(CCNC6)C5)cn4)nn3c2C2=CCCC2)cn1 [Example 92] | 500 to 2500 nM | 100 to 1000 nM |

| Compound | IC50 [1] | IC50 [2] |
| --- | --- | --- |
| Cn1cc(-c2cc3cnc(Nc4ccc(N5CCC6(CCNCC6)CC5)cn4)nn3c2C2=CCCC2)cn1 [Example 93] | < 500 nM | < 100 nM |
| COc1cc(F)ccc1-c1c(-c2cn[nH]c2)cc2cnc(Nc3ccc(N4CCNCC4)cn3)nn12 [Example 94] | < 500 nM | < 100 nM |
| C1=C(c2c(-c3cncnc3)cc3cnc(Nc4ccc(N5CCC6(CCNCC6)CC5)cn4)nn23)CCC1 [Example 96] | 500 to 2500 nM | < 100 nM |
| C1=C(c2c(-c3ccncc3)cc3cnc(Nc4ccc(N5CCNCC5)cn4)nn23)CCC1 [Example 97] | < 500 nM | < 100 nM |
| CN1CCN(c2ccc(Nc3ncc4cc(-c5cncnc5)c(C5=CCCC5)n4n3)nc2)CC1 [Example 98] | 500 to 2500 nM | < 100 nM |
| CN1CCN(c2ccc(Nc3ncc4cc(C(=O)N(C)C)c(C5=CCCC5)n4n3)nc2)CC1 [Example 99] | < 500 nM | < 100 nM |
| COc1ccc(-c2c(C(=O)N(C)C)cc3cnc(Nc4ccc(N5CCN(C)CC5)cn4)nn23)cc1 [Example 100] | < 500 nM | < 100 nM |
| [2H]C([2H])([2H])N1CCN(c2ccc(Nc3ncc4cc(C(=O)N(C)C)c(-c5ccc(OC)cc5)n4n3)nc2)CC1 [Example 101] | < 500 nM | < 100 nM |
| [2H]C([2H])([2H])N1CCN(c2ccc(Nc3ncc4cc(C(=O)N(C)C)c(C5=CCCC5)n4n3)nc2)CC1 [Example 102] | < 500 nM | < 100 nM |
| CCN1CCN(c2ccc(Nc3ncc4cc(C(=O)N(C)C)c(C5=CCCC5)n4n3)nc2)CC1 [Example 103] | < 500 nM | < 100 nM |
| [2H]C([2H])([2H])C([2H])([2H])N1CCN(c2ccc(Nc3ncc4cc(C(=O)N(C)C)c(C5=CCCC5)n4n3)nc2)CC1 [Example 104] | < 500 nM | < 100 nM |
| CN1CCN(c2ccc(Nc3ncc4cc(C(=O)N(C)C)c(C5=CCOCC5)n4n3)nc2)CC1 [Example 105] | < 500 nM | < 100 nM |
| [2H]C([2H])([2H])N1CCN(c2ccc(Nc3ncc4cc(C(=O)N(C)C)c(C5=CCOCC5)n4n3)nc2)CC1 [Example 106] | < 500 nM | < 100 nM |
| CN(C)C(=O)c1cc2cnc(Nc3ccc(N4CCNCC4)cn3)nn2c1C1=CCOCC1 [Example 107] | < 500 nM | < 100 nM |
| CN(C)C(=O)c1cc2cnc(Nc3ccc(N4CCNCC4)cn3)nn2c1-c1ccccc1 [Example 108] | < 500 nM | < 100 nM |
| CN(C)C(=O)c1cc2cnc(Nc3ccc(N4CCN(C5CC5)CC4)cn3)nn2c1C1=CCCC1 [Example 109] | < 500 nM | < 100 nM |
| Cc1cc(-c2cc3cnc(Nc4ccc(N5CCN(C)CC5)cn4)nn3c2C2=CCCC2)ccn1 [Example 110] | < 500 nM | < 100 nM |
| C1=C(c2c(-c3cnco3)cc3cnc(Nc4ccc(N5CCNCC5)cn4)nn23)CCC1 [Example 111] | < 500 nM | < 100 nM |
| [2H]C([2H])([2H])N(C(=O)c1cc2cnc(Nc3ccc(N4CCNCC4)cn3)nn2c1C1=CCCC1)C([2H])([2H])[2H] [Example 112] | < 500 nM | < 100 nM |
| [2H]C([2H])([2H])N(C(=O)c1cc2cnc(Nc3ccc(N4CCN(C)CC4)cn3)nn2c1C1=CCCC1)C([2H])([2H])[2H] [Example 113] | < 500 nM | < 100 nM |
| [2H]C([2H])([2H])N1CCN(c2ccc(Nc3ncc4cc(C(=O)N(C([2H])([2H])[2H])C([2H])([2H])[2H])c(C5=CCCC5)n4n3)nc2)CC1 [Example 114] | < 500 nM | < 100 nM |

From US20230002393A1, “CDK KINASE INHIBITOR” (BEIJING BENICALL BIOTECH CO., LTD., priority 2019, published 2023)
